Data from patent publication US5622960A, “Topoisomerase II inhibitors and therapeutic uses therefor” (The United States of America as represented by the …, priority 1992, dated 1997).
Entries after “also recorded” stand apart in the source; their conditions may differ.

Experiments:
top 2 = assay: Inhibition of top 2-mediated relaxation of native SV40 DNA; format: biochemical, mouse
Description: (§1) DNA topoisomerase II was purified from mouse leukemia L1210 cell nuclei as described, for example, by Pommier et al. (1985), supra, and was stored at -70° C. in 40% (v/v) glycerol, 0.35 M NaCl, 5 mM MgCl2, 1 mM KH2 PO4, 0.2 mM dithiothreitol and 0.1 mM phenylmethanesulfonyl fluoride (pH 6.4). The purified enzyme yielded a single 170 kDa band after silver staining of SDS-polyacrylamide gels, in accordance with the description of Pommier et al., Cancer Res. 46: 3075-81 (1986).
Two different assays were conducted to illuminate the nature of azatoxin's effects vis-a-vis DNA relaxation. To study the inhibition of top 2 catalytic activity, topoisomerase reactions were performed with 0.4 μg native SV40 DNA in 30 μl reaction buffer for 30 minutes at 37° C. and stopped by adding SDS to a final concentration of 1% and proteinase K to 400 μg/ml, followed by incubation for 1 hour at 42° C., essentially as described by Fesen & Pommier (1989), supra. Agarose gel electrophoresis was performed in 1% gels made in Tris-Acetate-EDTA (TAE) buffer (40 mM Tris-Acetate, pH 7.6, 10 mM Na2 EDTA). Gels were run at 2 V/cm overnight, washed in water and then stained with 1 μM ethidium bromide for 45 minutes. After an additional 45 minutes destaining in 1 mM Mg2 SO4, the DNA was visualized under UV light and photographed with a Polaroid type 57 film.

[1] = system: panel of sixty human tumor cells lines; assay: Growth inhibition / cytotoxicity against NCI panel of sixty human tumor cell lines; format: cell-based
Source text: FIG. 1 is a graphical representation of results generated by testing the inhibitory activity of an illustrative compound within the present invention against panel of tumor cell lines which is a standard of the National Cancer Institute Developmental Therapeutics Program [GI50: "50% growth inhibition"; TGI: "[…]"; LC50: "50% lethal concentration"].
See Yang et al., Cancer Res. 45:5872-76 (1985), and Liu (1989), supra, at 361-63. […] Pursuant to the convention of Paull et al., J. Nat'l Cancer Inst. […] See also Monks et al., J. Nat'l Cancer Inst. 83: 757-66 (1991), and Boyd, Principles & Practice of Oncology3:1-12 (1989).
(§2) Thus, azatoxin effectively prevents tubulin polymerization in vitro at concentrations in the range of 1 to 10 μM.

tubulin = assay: in vitro tubulin polymerization assay; format: biochemical
Description: as §2

SV40 DNA = assay: DNA unwinding (intercalation) assay with excess topoisomerase I; format: biochemical, simian virus 40
Description: To assess DNA unwinding, see Pommier et al., Nucleic Acids Res. 15: 6713-31(1987), the DNA was relaxed first by treatment for 15 minutes with top 1 (20 units), after which the test agent was added. These steps were carried out at 37° C. DNA-agent-top 1 mixtures were incubated for an additional 30 minutes and then stopped as described above. Samples were then subjected to agarose gel electrophoresis as described above.
This was also the case for the 2 azatoxin isomers, 8 and 10, and for the demethylepipodophyllotoxins, DMDP and DMEP. Similar results were obtained with supercoiled DNA.

[2] = system: top 2 (HL-60 nuclear extract); assay: Induction of DNA double-strand breaks in SV40 DNA in presence of HL-60 nuclear extract; format: biochemical
Description: (§3) Chemicals, and enzymes: Azatoxin and its derivatives, as well as the demethyldesoxypodophyllotoxin (DMDP) and demethylepipodophyllotoxin (DMEP), were synthesized by conventional methods. The compounds m-AMSA and mitoxantrone were obtained from the Drug Synthesis and Chemistry Branch, National Cancer Institute, Bethesda, Md. The compounds VP-16 and VM-26 were obtained from Bristol-Myers Company (Wallingford, Conn.). Drug stock solutions were made in dimethylsulfoxide at 10 mM. Further dilutions were made in distilled water. Various other reagents, including simian virus 40 (SV40) and c-myc human DNA inserts in plasmid pBR322, restriction endonucleases, DNA topoisomerase I, T4 polynucleotide kinase, calf intestine phosphatase, agarose and polyacrylamide/bis, were purchased from Bethesda Research Laboratories (Gaithersburg, Md.), from the American Type Culture Collection (Rockville, Md.) or from New England Biolabs (Beverly, Mass.). [Gamma-^32 P]ATP was purchased from New England Nuclear Research Products (Boston, Mass.).
Preparation of end-labeled DNA fragments: DNA fragments were 5' end-labeled as described, for example, by Fesen and Pommier (1989), supra. Briefly, native DNA was first linearized with a restriction enzyme, then the 5'-DNA termini were dephosphorylated with calf alkaline phosphatase and labeled with [gamma-^32 P]ATP using T4 polynucleotide kinase. For double-strand breaks assays using HL-60 nuclear extract, SV40 DNA was digested with BclI endonuclease and labeled at both DNA termini. For sequencing experiments, SV40 and c-myc DNAs were first 5'-end labeled at the XhoII and XbaI restriction sites, respectively. Then, in order to generate uniquely 5'-end-labeled fragments, labeled DNA was subjected to a second enzyme digestion, PflMI for SV40, and EcoRI plus HindIII for c-myc DNA. The resulting DNA fragments were separated by agarose gel electrophoresis and isolated by electroelution. […]
For agarose gel analysis, 3 μl (10×) loading buffer (0.3% bromophenol blue, 16% Ficoll, 10 mM Na2 HPO4) was added to each sample which was then heated at 65° C. for 1-2 minutes before loading into an agarose gel made in (1×) TBE (89 mM Tris, 89 mM boric acid, 2 mM EDTA, pH8), in accordance with Fesen & Pommier (1989), supra. […] The quantification of drug-induced DNA double-strand breaks in the presence of HL-60 nuclear extract was effected as described in the next paragraph.
Radioactive gels were counted in betascope 603 blot analyzer. […] Drug-induced cleavage was expressed as: [formula] where C. and T. are the counts for cleaved and total DNA, respectively, in presence of nuclear extract without drug.
Drug-induced DNA double-strand breaks were measured first in SV40 DNA in the presence of HL-60 nuclear extracts. […]

[3] = system: cells (protein-linked DNA breaks); assay: protein-linked DNA breaks in cells; format: cell-based; details: compared to other top 2 inhibitors
[4] = target: T1, purified murine leukemia top 2 (Mus musculus, UniProt Q01320); assay: Sequencing of topoisomerase II cleavage sites (SV40 and c-myc DNA); format: biochemical; details: for top 2 cleavage sites induced (number/amount): SV40 and c-myc DNA, purified murine top 2
T1 construct: single 170 kDa band on silver-stained SDS-PAGE
T1 sequence (Q01320 whole entry): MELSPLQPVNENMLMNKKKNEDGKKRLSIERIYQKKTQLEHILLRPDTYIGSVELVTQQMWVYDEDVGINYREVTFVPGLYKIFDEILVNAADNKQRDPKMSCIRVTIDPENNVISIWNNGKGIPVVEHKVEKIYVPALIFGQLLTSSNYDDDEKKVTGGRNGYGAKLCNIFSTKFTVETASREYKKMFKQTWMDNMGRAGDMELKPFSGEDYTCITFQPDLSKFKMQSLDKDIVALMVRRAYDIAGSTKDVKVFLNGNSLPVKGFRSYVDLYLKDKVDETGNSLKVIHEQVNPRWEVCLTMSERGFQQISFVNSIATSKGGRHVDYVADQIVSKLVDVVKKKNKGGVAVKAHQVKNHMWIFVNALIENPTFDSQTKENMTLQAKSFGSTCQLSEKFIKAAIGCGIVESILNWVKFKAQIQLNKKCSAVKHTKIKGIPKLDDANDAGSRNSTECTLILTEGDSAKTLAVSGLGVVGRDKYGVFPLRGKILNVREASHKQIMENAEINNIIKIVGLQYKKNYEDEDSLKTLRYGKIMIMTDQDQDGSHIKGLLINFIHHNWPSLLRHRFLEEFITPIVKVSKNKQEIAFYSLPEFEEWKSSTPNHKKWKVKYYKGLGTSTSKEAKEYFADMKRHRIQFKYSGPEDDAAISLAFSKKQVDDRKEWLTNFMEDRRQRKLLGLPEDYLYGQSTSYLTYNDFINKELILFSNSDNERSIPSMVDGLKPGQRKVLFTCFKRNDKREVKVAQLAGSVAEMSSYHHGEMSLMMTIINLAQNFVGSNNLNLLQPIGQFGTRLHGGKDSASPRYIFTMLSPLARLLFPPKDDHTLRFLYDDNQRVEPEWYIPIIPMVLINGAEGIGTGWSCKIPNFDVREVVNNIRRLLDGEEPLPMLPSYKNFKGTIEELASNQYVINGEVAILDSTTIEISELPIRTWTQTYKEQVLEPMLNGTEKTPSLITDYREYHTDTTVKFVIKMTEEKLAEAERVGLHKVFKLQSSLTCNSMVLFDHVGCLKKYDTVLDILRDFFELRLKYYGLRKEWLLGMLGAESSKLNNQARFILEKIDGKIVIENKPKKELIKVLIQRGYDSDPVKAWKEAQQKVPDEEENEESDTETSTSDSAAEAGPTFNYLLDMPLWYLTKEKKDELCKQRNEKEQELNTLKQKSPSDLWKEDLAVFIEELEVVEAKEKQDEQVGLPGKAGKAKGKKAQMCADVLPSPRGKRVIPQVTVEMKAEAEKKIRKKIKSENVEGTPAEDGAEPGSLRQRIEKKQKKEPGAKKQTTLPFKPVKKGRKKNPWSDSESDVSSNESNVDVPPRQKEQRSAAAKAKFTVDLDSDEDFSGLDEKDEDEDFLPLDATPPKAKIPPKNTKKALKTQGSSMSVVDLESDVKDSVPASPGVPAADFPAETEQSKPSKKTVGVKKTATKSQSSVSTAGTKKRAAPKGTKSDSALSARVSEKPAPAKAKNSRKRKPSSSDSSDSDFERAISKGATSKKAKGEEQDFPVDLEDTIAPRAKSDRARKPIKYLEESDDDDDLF
Description: as §3, §1
Preparation of end-labeled DNA fragments: DNA fragments were 5' end-labeled as described, for example, by Fesen and Pommier (1989), supra. Briefly, native DNA was first linearized with a restriction enzyme, then the 5'-DNA termini were dephosphorylated with calf alkaline phosphatase and labeled with [gamma-^32 P]ATP using T4 polynucleotide kinase. For double-strand breaks assays using HL-60 nuclear extract, SV40 DNA was digested with BclI endonuclease and labeled at both DNA termini. For sequencing experiments, SV40 and c-myc DNAs were first 5'-end labeled at the XhoII and XbaI restriction sites, respectively. Then, in order to generate uniquely 5'-end-labeled fragments, labeled DNA was subjected to a second enzyme digestion, PflMI for SV40, and EcoRI plus HindIII for c-myc DNA. The resulting DNA fragments were separated by agarose gel electrophoresis and isolated by electroelution. Purification by phenol-chloroform extraction and ethanol precipitation were included between each step and at the end of the labeling procedures, pursuant to Pommier et al., J. Molec. Biol. 222: 909-24 (1991).
Topoisomerase II-induced DNA cleavage reactions: DNA fragments were equilibrated with or without drug in 10 mM Tris-HCl, pH 7.5, 50 mM KCl, 5 mM MgCl2 0.1 mM EDTA, 1 mM ATP and 15 μg/ml bovine serum albumin for 5 minutes before addition of purified topoisomerase II (40 to 70 ng) or HL-60 nuclear extract in 20 μl final reaction volume. Reactions were stopped by adding sodium dodecyl sulfate (SDS) to a final concentration of 1% and proteinase K to 400 μg/ml, followed by incubation for 1 hour at 40° C.
For DNA sequence analysis, samples were precipitated with ethanol and resuspended in 2.5 μl loading buffer (80% formamide, 10 mM NaOH, 1 mM EDTA, 0.1% xylene cyanol and 0.1% bromophenol blue). Samples were heated to 90° C. and immediately loaded into DNA sequencing gels (6% polyacrylamide; 19:1, acrylamide:bis) containing 7M urea in (1×) TBE buffer. Electrophoresis was at 2500 V (60 W) for 4 hours. Gels were dried on 3M paper sheets and autoradiographed with Kodak XAR-2 film. See Pommier et al. (1991), supra.
Induction of top 2 cleavage by azatoxin was tested directly with the use of purified murine leukemia top 2. […] Sites of cleavage were also determined by DNA sequencing in the 5' flank of c-myc first intron.

COc1cc([C@@H]2c3[nH]c4ccccc4c3C[C@H]3COC(=O)N32)cc(OC)c1O [Azatoxin, 5R, 11aS-3-One-5,4,11,11a-tetrahydro-5-(3,5-dimethoxy-4-hydroxyphenyl) -1H, 6H-oxazolo[3', 4': 1,6]pyrido[3,4-b]indole]
production of linear / nicked DNA (top 2): produce a substantial amount of linear DNA without significant increased of nicked DNA | inhibition of top 2-mediated relaxation (top 2; 30 minutes, 37° C.): inhibits top 2-mediated relaxation of native SV40 DNA | cytotoxicity to tumor cells (in words) ([1]; FIG. 1 means graph): cytotoxicity of aratoxin to cells associated with disseminated cancers (leukemias) as well as several consolidated cancers (non-small cell lung and colon) | growth inhibition of human tumor cell lines (in words) ([1]; sixty cell lines: leukemia, melanoma, lung, colon, kidney, ovary, CNS): significant inhibitory activity | tubulin inhibition (in words) (tubulin): potent tubulin inhibitor | DNA unwinding / intercalation conclusion (SV40 DNA): does not intercalate into DNA | DNA unwinding (SV40 DNA; relaxed SV40 DNA, excess topoisomerase I, concentrations as high as 1 mM): did not induce detectable DNA unwinding even at drug concentrations as high as 1 mM | DNA cleavage potency (in words) ([2]; SV40 DNA, HL-60 nuclear extract, compared to VP-16): comparable to that of VP-16 | cleavage above 10 μM, concentration dependence ([2]; above 10 μM): cleavage occurred at many sites and was proportional to the logarithm of azatoxin concentration | suppression of DNA cleavage at high drug concentrations ([2]; up to 1 mM): not suppressed at high drug concentrations (up to 1 mM) | inducing protein-linked DNA breaks in cells [3]: very active in inducing protein-linked DNA breaks in cells | top 2 cleavage potency (in words) [4]: potent top 2 inhibitor | top 2 cleavage sites induced (number/amount) [4]: induced many cleavage sites both in the SV40 and the c-myc DNA fragments | top 2 cleavage sites induced (number/amount) ([4]; listed as azatoxin): induced more cleavage sites than mitoxantrone, m-AMSA, VM-26 or VP-16; also recorded: induces the largest number of top 2 cleavage sites both in SV40 and c-myc DNA | top 2 cleavage pattern ([4]; compared with other top 2 inhibitors): cleavage pattern differing from those induced by other top 2 inhibitors
